Reference: PubChem BioAssay (NCI)
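All cell lines were grown in 96-well plates and treated with compound for 48 hours. TGI: total growth inhibition.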

Key:
Assay in all cases: inhibition of tumour cell growth, NCI panel, 48 h
OVCAR-3 ovarian = tested on: OVCAR-3 ovarian
CCRF-CEM leukemia = tested on: CCRF-CEM leukemia
K-562 leukemia = tested on: K-562 leukemia
M14 melanoma = tested on: M14 melanoma
NCI-H522 lung = tested on: NCI-H522 lung
SK-MEL-28 melanoma = tested on: SK-MEL-28 melanoma
SF-539 CNS = tested on: SF-539 CNS
SR leukemia = tested on: SR leukemia
CAKI-1 renal = tested on: CAKI-1 renal
NCI-H226 lung = tested on: NCI-H226 lung
HOP-92 NSCLC = tested on: HOP-92 NSCLC
U251 CNS = tested on: U251 CNS
HOP-18 NSCLC = tested on: HOP-18 NSCLC
OVCAR-8 ovarian = tested on: OVCAR-8 ovarian
MALME-3M melanoma = tested on: MALME-3M melanoma
MOLT-4 leukemia = tested on: MOLT-4 leukemia
ACHN renal = tested on: ACHN renal
SNB-78 CNS = tested on: SNB-78 CNS
OVCAR-4 ovarian = tested on: OVCAR-4 ovarian
XF 498 CNS = tested on: XF 498 CNS
LOX IMVI melanoma = tested on: LOX IMVI melanoma
SK-MEL-5 melanoma = tested on: SK-MEL-5 melanoma
LXFL 529 NSCLC = tested on: LXFL 529 NSCLC
UACC-257 melanoma = tested on: UACC-257 melanoma
HT29 colon = tested on: HT29 colon
A549 NSCLC = tested on: A549 NSCLC
EKVX NSCLC = tested on: EKVX NSCLC
SK-MEL-2 melanoma = tested on: SK-MEL-2 melanoma
KM12 colon = tested on: KM12 colon
RPMI-8226 leukemia = tested on: RPMI-8226 leukemia
SF-295 CNS = tested on: SF-295 CNS
HL-60(TB) leukemia = tested on: HL-60(TB) leukemia
OVCAR-5 ovarian = tested on: OVCAR-5 ovarian
HCT-116 colon = tested on: HCT-116 colon
UACC-62 melanoma = tested on: UACC-62 melanoma
HCC-2998 colon = tested on: HCC-2998 colon
786-0 renal = tested on: 786-0 renal
SW-620 colon = tested on: SW-620 colon
TK-10 renal = tested on: TK-10 renal
M19-MEL melanoma = tested on: M19-MEL melanoma
IGROV1 ovarian = tested on: IGROV1 ovarian
HOP-62 NSCLC = tested on: HOP-62 NSCLC
SK-OV-3 ovarian = tested on: SK-OV-3 ovarian
DMS 114 small cell lung = tested on: DMS 114 small cell lung
DLD-1 colon = tested on: DLD-1 colon
SNB-19 CNS = tested on: SNB-19 CNS
NCI-H460 lung = tested on: NCI-H460 lung
NCI-H23 lung = tested on: NCI-H23 lung
RXF 393 renal = tested on: RXF 393 renal
HCT-15 colon = tested on: HCT-15 colon
SN12C renal = tested on: SN12C renal
UO-31 renal = tested on: UO-31 renal
COLO 205 colon = tested on: COLO 205 colon
KM20L2 colon = tested on: KM20L2 colon
SF-268 CNS = tested on: SF-268 CNS
SNB-75 CNS = tested on: SNB-75 CNS
DMS 273 small cell lung = tested on: DMS 273 small cell lung

O=C1OC(CC(=O)c2ccc(F)cc2)C(Cl)=C1Cl (stereo unspecified)
TGI (OVCAR-3 ovarian): 38.7 µM | TGI (CCRF-CEM leukemia): > 100 µM | TGI (K-562 leukemia): > 100 µM | TGI (M14 melanoma): 56.6 µM | TGI (NCI-H522 lung): 34.9 µM | TGI (SK-MEL-28 melanoma): > 100 µM | TGI (SF-539 CNS): 35.2 µM | TGI (SR leukemia): 79 µM | TGI (CAKI-1 renal): 92.8 µM | TGI (NCI-H226 lung): 33.8 µM | TGI (HOP-92 NSCLC): 34.7 µM | TGI (U251 CNS): 34.3 µM | TGI (HOP-18 NSCLC): 44.6 µM | TGI (OVCAR-8 ovarian): 40.2 µM | TGI (MALME-3M melanoma): 33.8 µM | TGI (MOLT-4 leukemia): > 100 µM | TGI (ACHN renal): > 100 µM | TGI (SNB-78 CNS): > 100 µM | TGI (OVCAR-4 ovarian): 43.5 µM | TGI (XF 498 CNS): 46.8 µM | TGI (LOX IMVI melanoma): 31.9 µM | TGI (SK-MEL-5 melanoma): 60.4 µM | TGI (LXFL 529 NSCLC): 31.9 µM | TGI (UACC-257 melanoma): 33.6 µM | TGI (HT29 colon): 32.1 µM | TGI (A549 NSCLC): > 100 µM | TGI (EKVX NSCLC): > 100 µM | TGI (SK-MEL-2 melanoma): 45 µM | TGI (KM12 colon): 33 µM | TGI (RPMI-8226 leukemia): > 100 µM | TGI (SF-295 CNS): > 100 µM | TGI (HL-60(TB) leukemia): 62 µM | TGI (OVCAR-5 ovarian): 44.9 µM | TGI (HCT-116 colon): 46.2 µM | TGI (UACC-62 melanoma): 32.2 µM | TGI (HCC-2998 colon): 30.1 µM | TGI (786-0 renal): 34.3 µM | TGI (SW-620 colon): 46.2 µM | TGI (TK-10 renal): 91.1 µM | TGI (M19-MEL melanoma): > 100 µM | TGI (IGROV1 ovarian): 72.7 µM | TGI (HOP-62 NSCLC): 72.5 µM | TGI (SK-OV-3 ovarian): > 100 µM | TGI (DMS 114 small cell lung): > 100 µM | TGI (DLD-1 colon): 47.4 µM | TGI (SNB-19 CNS): 47 µM | TGI (NCI-H460 lung): 52.2 µM | TGI (NCI-H23 lung): 93.5 µM | TGI (RXF 393 renal): 37.5 µM | TGI (HCT-15 colon): 35.5 µM | TGI (SN12C renal): 35.3 µM | TGI (UO-31 renal): 38.5 µM

O/N=C1/CCC/C1=C\c1ccccc1
TGI (OVCAR-3 ovarian): > 100 µM | TGI (CCRF-CEM leukemia): > 100 µM | TGI (K-562 leukemia): > 100 µM | TGI (M14 melanoma): > 100 µM | TGI (NCI-H522 lung): > 100 µM | TGI (SK-MEL-28 melanoma): > 100 µM | TGI (SF-539 CNS): > 100 µM | TGI (SR leukemia): > 100 µM | TGI (CAKI-1 renal): > 100 µM | TGI (NCI-H226 lung): > 100 µM | TGI (HOP-92 NSCLC): > 100 µM | TGI (U251 CNS): > 100 µM | TGI (HOP-18 NSCLC): > 100 µM | TGI (OVCAR-8 ovarian): > 100 µM | TGI (COLO 205 colon): > 100 µM | TGI (MALME-3M melanoma): > 100 µM | TGI (MOLT-4 leukemia): > 100 µM | TGI (ACHN renal): > 100 µM | TGI (SNB-78 CNS): > 100 µM | TGI (OVCAR-4 ovarian): > 100 µM | TGI (XF 498 CNS): > 100 µM | TGI (LOX IMVI melanoma): > 100 µM | TGI (SK-MEL-5 melanoma): > 100 µM | TGI (LXFL 529 NSCLC): > 100 µM | TGI (UACC-257 melanoma): > 100 µM | TGI (A549 NSCLC): > 100 µM | TGI (EKVX NSCLC): > 100 µM | TGI (SK-MEL-2 melanoma): > 100 µM | TGI (KM12 colon): > 100 µM | TGI (RPMI-8226 leukemia): > 100 µM | TGI (SF-295 CNS): > 100 µM | TGI (KM20L2 colon): > 100 µM | TGI (SF-268 CNS): > 100 µM | TGI (HL-60(TB) leukemia): > 100 µM | TGI (OVCAR-5 ovarian): > 100 µM | TGI (HCT-116 colon): > 100 µM | TGI (UACC-62 melanoma): > 100 µM | TGI (HCC-2998 colon): > 100 µM | TGI (786-0 renal): > 100 µM | TGI (SW-620 colon): > 100 µM | TGI (SNB-75 CNS): 44.8 µM | TGI (TK-10 renal): > 100 µM | TGI (IGROV1 ovarian): > 100 µM | TGI (HOP-62 NSCLC): > 100 µM | TGI (SK-OV-3 ovarian): > 100 µM | TGI (DLD-1 colon): > 100 µM | TGI (SNB-19 CNS): > 100 µM | TGI (NCI-H460 lung): > 100 µM | TGI (NCI-H23 lung): > 100 µM | TGI (RXF 393 renal): > 100 µM | TGI (HCT-15 colon): > 100 µM | TGI (DMS 273 small cell lung): > 100 µM | TGI (SN12C renal): > 100 µM | TGI (UO-31 renal): > 100 µM
